How the values were obtained:
[1] = Kinetics and biodistribution of [3H] labeled Formula I (standard uptake values); assay type: in vivo; conditions: mice
Description: 100 μl of [^3H] labeled Formula I, diluted in saline to 740 kBq/ml, was injected into the tail vein of female mice weighing […]. Mice were killed by CO2 at 2, 5, 15, 30, or 60 min post-injection and organs immediately dissected out. Organs were weighed, transferred to scintillation tubes containing 2 ml Biolute-S (Zinsser Analytic GmbH, Germany), and tubes were shaken overnight at room temperature. Subsequently, 200 μL of glacial acetic acid was added and after 1 h, 10 mL of scintillation fluid was added (Ready Organics, Beckman Coulter). The tubes were shaken vigorously, allowed to rest for 1 h, and radioactivity was measured in scintillation counter (LS 6000LL, Beckman Instruments). Blood, also sampled at each time point, was collected in heparinized tubes. 10 μL of each sample was added to 2 ml Biolute-S. A similar procedure was used for the other organs studied.
Biodistribution of Formula I at different time points following administration was expressed as standard uptake values (SUVs), according to the following formula wherein RA is a measure of radioactivity: […]

myelin = experiment: Staining of cryostatic sections of nervous tissue; assay type: binding, rat; conditions: for labeling of brain or nerve tissue versus background autofluorescence: brain and nerve sections
Description: 10 μm-thick sections (fresh frozen or formalin-fixed) of rat brain and cross-sections of sciatic, optic, and penile nerves were mounted on microscope slides, washed 3×5 min in phosphate buffered saline (PBS), then drained for 2 min. 1 mM stock solution of Formula I was prepared in 50% ethanol and 50% deionized water. The solution was vortexed and centrifuged at 10,000×g, and the supernatant, containing fully dissolved Formula I was transferred into a fresh tube. The solution was diluted to 25 uM in 50% ethanol. 200 uL of the 25 uM Formula I was pipetted onto the microscope slides. Control sections were treated with 50% ethanol. Parafilm was placed over sections during 10 min incubation at room temperature. Unbound compound was rinsed by serial immersion in 3×1 min washes in 50% ethanol, followed by a 1 min wash in de-ionized, distilled water. For cell body counterstaining, sections were immersed in 100 uL of 500 nM propidium iodide (PI) in PBS and carefully covered with parafilm. The sections were incubated for 5 min at room temperature. The samples were repeatedly rinsed and washed with PBS (3×10 min), followed by de-ionized, distilled water. The sections were covered with 20 uL of AntiFade Gold (Molecular Probes Inc, Carlsbad Calif.) and examined microscopically. Images were collected on a Leica DMRA2 fluorescent microscope equipped with filter cubes for near ultraviolet and visible fluorophores. Fluorescence was visualized using a Leica “A” filter cube while PI was imaged with a Leica “TX2” cube.
Staining of sciatic nerve sections by Formula I was also compared to a commercially available myelin stain (FluoroMyelin, Invitrogen). The tissue sections were […] by incubating in PBS for 5 minutes, followed by permeabilized with PBS containing 0.2% Triton X-100 for 20 minutes. The staining solution was prepared by 300-fold dilution of a stock solution of DAPI and a stock solution of Fluoromyelin green fluorescent myelin. Each section was flooded with 100 uL of the staining solution, covered with a small piece of parafilm and allowed to incubate for 20 min. The parafilm was removed and all sections were washed 3×5 min in PBS and rinsed with de-ionized, distilled water. After drying, the tissue sections were covered with 20 uL of AntiFade Gold (Molecular Probes Inc) and examined microscopically.

[2] = Fluorescence excitation and emission peaks (Spetramax M5); assay type: physicochemical; conditions: 10 μM in aqueous solution
Description: Fluorescence excitation and emission peaks for Formula I, and benzofuran compounds A and B, (see Table 1) were measured using a Spetramax M5 (Molecular Devices). For Formula I, the excitation max was 380 nm, and the emission max was 470 nm. For compound A, the excitation max was 435 nm and the emission max was 550 nm. For compound B, the excitation max was 435 nm and the emission max was 535 nm. The final concentration of each analog in an aqueous solution was 10 μM. Log P, which is the logarithm of octanol-water partition coefficient, was determined for each analog using commercially available software (Table 1).

[3] = system: myelin of freshly explanted sciatic nerve; experiment: Staining of explanted nerves; assay type: binding, rat; conditions: 20 min incubation, trans-illuminator ≧350 nm
Description: Freshly explanted sciatic nerve was incubated in Formula I then imaged under an ultraviolet transilluminator to visualize myelin. Rats were euthanized and within 30 min, 2 cm-long segments of their sciatic nerve tissue were collected, rinsed with PBS, then washed 3×5 min in 50% ethanol. The nerves were incubated at RT in the dark for 20 min in a solution of Formula I as prepared in Example 1. Control nerves were incubated in 50% ethanol. Nerves were rinsed 3×3 min in 50% ethanol, followed by de-ionized distilled water, and mounted on glass slides. Samples were placed on a trans-illuminator (long wavelength, ≧350 nm) and photographed.

Structure (SMILES)	blood-brain barrier penetration ([1]; peripheral administration, uptake in cortex and cerebellum)	SUV / radioactive signal of sciatic nerve over time ([1]; tail vein injection, 2-60 min)	SUV of cortex and cerebellum ([1]; tail vein injection, 2 min post-injection)	time for SUV of multiple tissues to decline to baseline levels ([1]; tail vein injection, tissues such as blood and muscle) [min]	labeling of rat brain tissue section (myelin; 25 uM in 50% ethanol, 10 min, cerebellum, PI counterstain, FIG. 1)	labeling of sectioned peripheral nerves (myelin; cross-sections of peripheral nerves)	Emission max [2] [nm]	Excitation max [2] [nm]	fluorescence of explanted sciatic nerve [3]	labeling of brain or nerve tissue versus background autofluorescence (myelin)
O=Cc1ccc(-c2oc3ccccc3c2CO)o1 [Formula I, 2-(2-furanyl-5-formyl)-3-hydroxymethyl benzofuran]	does not readily penetrate the blood-brain barrier	remained elevated throughout the sampling period	< 0.2	≤ 60	specific labeling of myelin	distinctive rings of labeling indicative of cross sections of myelin ensheathing unlabeled axon shafts	470	380	distinctive fluorescence over background	
N#CC(C#N)=Cc1ccc(-c2oc3ccccc3c2CO)o1 [compound A]							550	435		did not label brain or nerve tissue above background autofluorescence
CC(=O)OCc1c(-c2ccc(C=C(C#N)C#N)o2)oc2ccccc12 [compound B, 2-(2-diaminooxyethenyl-5-furanyl)-3-ethylacetyl benzofuran]							535	435		did not label brain or nerve tissue above background autofluorescence

— US8114382B2, “Myelin detection using benzofuran derivatives” (General Electric Company, priority 2006, dated 2012)
